Results as given in patent US6004955A, “Cyclic carbamates and isoxazolidines as IIb/IIIa antagonists” (DuPont Pharmaceuticals Company, priority 1998, dated 1999).

Assays:
[1] = tested on: platelet aggregation (using platelet rich plasma (PRP)); assay: Platelet Aggregation Assay (without esterase); assay type: cell-based; conditions: human platelet rich plasma
Procedure: (§1) Platelet Aggregation Assay: Venous blood was obtained from the arm of a healthy human donor who was drug-free and aspirin-free for at least two weeks prior to blood collection. Blood was collected into 10 mL citrated Vacutainer tubes. The blood was centrifuged for 15 minutes at 150×g at room temperature, and platelet-rich plasma (PRP) was removed. The remaining blood was centrifuged for 15 minutes at 1500×g at room temperature, and platelet-poor plasma (PPP) was removed. Samples were assayed on a aggregometer (PAP-4 Platelet Aggregation Profiler), using PPP as the blank (100% transmittance). 200 μL of PRP was added to each micro test tube, and transmittance was set to 0%. 20 μL of various agonists (ADP, collagen, arachidonate, epinephrine, thrombin) were added to each tube, and the aggregation profiles were plotted (% transmittance versus time). The results are expressed as % inhibition of agonist-inducedplatelet aggregation. For the IC50 evaluation, the test compounds were added at various concentrations prior to the activation of the platelets.
(§2) Table A below sets forth the antiplatelet activity of representative compounds of the present invention. The indicated compounds were tested for their ability to inhibit platelet aggregation (using platelet rich plasma (PRP)). The IC50 value (the concentration of antagonist which inhibits platelet aggregation by 50% relative to a control lacking the antagonist) is shown. In Table 5 the IC50 values are expressed as: +++=IC50 of <10 μM (μM=micromolar).

[2] = tested on: platelet aggregation (using platelet rich plasma (PRP)); assay: Platelet Aggregation Assay (with esterase; ester prodrugs preincubated with porcine liver esterase); assay type: cell-based; conditions: human platelet rich plasma; preincubated with 100 IU/mL Porcine liver esterase 2 hours at 37° C.; 100 μM Adenosine Diphosphate
Procedure: as §1
Ester prodrugs were preincubated (10^-3 M F.C.) with 100 IU/mL Porcine liver esterase (Sigma Chemical Co., St. Louis, Mo., #E-3128) for 2 hours at 37° C. Aliquots are then diluted in 0.1 M Tris, pH 7.4, to the desired concentrations. Aliquots of 20 μl of the esterase pretreated prodrugs are added to 200 μl of human platelet rich plasma. Samples were placed in platelet profiler (aggregometer) for 8 minutes at 37° C., followed by the addition of 100 μM Adenosine Diphosphate, (Sigma Chemical Co., St. Louis, Mo., #A-6521), to induce platelet aggregation. Platelet aggregation was allowed to proceed for 5 minutes. Percent inhibition is calculated using percent aggregation in the presence of the test compound divided by percent aggregation of control, times 100. This value is subtracted from 100, yielding percent inhibition. Calculation of IC50 is performed on a Texas Instruments TI59 with an IC50 program.
as §2

| SMILES | IC50 [1] | IC50 [2] |
| --- | --- | --- |
| Cc1noc(C)c1S(=O)(=O)N[C@@H](CNC(=O)CC1CC(c2ccc(C(=N)N)cc2)N(C)C(=O)O1)C(=O)O (stereo partly drawn) [Example 336, Cis-3-[[[4-[4-(aminoiminomethyl)phenyl]tetrahydro-3-methyl-2-oxo-2H-1,3-oxazin-6-yl]acetyl]amino]-N-[(3,5-dimethylisoxazol-4-yl)sulfonyl]-L-alanine monohydrogenchloride] | < 10 µM |  |
| CCCCOC(=O)N[C@@H](CNC(=O)CC1CC(c2ccc(C(=N)N)cc2)N(C)C(=O)O1)C(=O)OC (stereo partly drawn) [Example 355, Cis-3-[[[4-[4-(aminoiminomethyl)phenyl]tetrahydro-3-methyl-2-oxo-2H-1,3-oxazin-6-yl]acetyl]amino]-N-(n-butyloxycarbonyl)-L-alanine methyl ester monotrifluoroacetic acid] |  | < 10 µM |
| COC(=O)[C@H](CNC(=O)C[C@@H]1C[C@H](c2ccc(C(=N)N)cc2)N(C)O1)NS(=O)(=O)c1c(C)noc1C (relative stereo) [Example 37, Cis-3-[2-[2-methyl-3-[4-(aminoiminomethyl)phenyl]-isoxazolidin-5-yl]acetyl]amino-N-(3,5-dimethyloxazol-4-ylsulfonyl)-L-alanine methyl ester monotrifluoroacetic] |  | < 10 µM |
| Cc1ccccc1S(=O)(=O)N[C@@H](CNC(=O)CC1CC(c2ccc(C(=N)N)cc2)N(C)O1)C(=O)O (stereo partly drawn) [Example 33, Cis-3-[2-[2-methyl-3-[4-(aminoiminomethyl)phenyl]-isoxazolidin-5-yl]acetyl]amino-N-(2-methylphenylsulfonyl)-L-alanine monohydrogenchloride] | < 10 µM |  |
| COC(=O)[C@H](CNC(=O)CC1CC(c2ccc(C(=N)N)cc2)N(C)C(=O)O1)NS(=O)(=O)c1cccc(C)c1 (stereo partly drawn) [Example 300, Cis-3-[[[4-[4-(aminoiminomethyl)phenyl]tetrahydro-3-methyl-2-oxo-2H-1,3-oxazin-6-yl]acetyl]amino]-N-[(3-methylphenyl)sulfonyl]-L-alanine methyl ester monotrifluoroacetic acid] |  | < 10 µM |
| COC(=O)[C@H](CNC(=O)CC1CC(c2ccc(C(=N)N)cc2)N(c2ccccc2)O1)NS(=O)(=O)c1cccc(C)c1 (stereo partly drawn) [Example 70, Cis-3-[2-[2-phenyl-3-[4-(aminoiminomethyl)phenyl]-isoxazolidin-5-yl]acetyl]amino-N-(3-methylphenylsulfonyl)-L-alanine methyl ester monotrifluoroacetic acid] |  | < 10 µM |
| COC(=O)[C@H](CNC(=O)CC1CC(c2ccc(C(=N)N)cc2)N(C)O1)NS(=O)(=O)c1cccc(C)c1 (stereo partly drawn) [Example 1, Cis-3-[2-[2-methyl-3-[4-(aminoiminomethyl)phenyl]-isoxazolidin-5-yl]-acetyl]amino-N-(3-methylphenylsulfonyl)-L-alanine Methyl Ester Monotrifluoroacetic Acid] |  | < 10 µM |
| Cc1cccc(S(=O)(=O)N[C@@H](CNC(=O)CC2CC(c3ccc(C(=N)N)cc3)N(c3ccccc3)O2)C(=O)O)c1 (stereo partly drawn) [Example 71, Cis-3-[2-[2-phenyl-[4-(aminoiminomethyl)phenyl]-isoxazolidin-5-yl]actetyl]amino-N-(3-methylphenylsulfonyl)-L-alanine monohydrogenchloride] | < 10 µM |  |
| CCCCOC(=O)N[C@@H](CNC(=O)CC1CC(c2ccc(C(=N)N)cc2)N(C)C(=O)O1)C(=O)O (stereo partly drawn) [Example 356, Cis-3-[[[4-[4-(aminoiminomethyl)phenyl]tetrahydro-3-methyl-2-oxo-2H-1,3-oxazin-6-yl]acetyl]amino]-N-(n-butyloxycarbonyl)-L-alanine monohydrogenchloride] | < 10 µM |  |
| Cc1cccc(S(=O)(=O)N[C@@H](CNC(=O)CC2CC(c3ccc(C(=N)N)cc3)N(C)C(=O)O2)C(=O)O)c1 (stereo partly drawn) [Example 301, Cis-3-[[[4-[4-(aminoiminomethyl)phenyl]tetrahydro-3-methyl-2-oxo-2H-1,3-oxazin-6-yl]acetyl]amino]-N-[(3-methylphenyl)sulfonyl]-L-alanine monohydrogenchloride] | < 10 µM |  |
| COC(=O)[C@H](CNC(=O)CC1CC(c2ccc(C(=N)N)cc2)N(C)O1)NS(=O)(=O)c1cccc(C)c1 (stereo partly drawn) [Example 3, Trans-3-[2-[2-methyl-3-[4-(aminoiminomethyl)phenyl]-isoxazolidin-5-yl]acetyl]amino-N-(3-methylphenylsulfonyl)-L-alanine methyl ester monotrifluoroacetic acid] |  | < 10 µM |
| CCCCOC(=O)N[C@@H](CNC(=O)CC1CC(c2ccc(C(=N)N)cc2)N(C)O1)C(=O)OC (stereo partly drawn) [Example 68, Cis-3-[2-[2-methyl-3-[4-(aminoiminomethyl)phenyl]-isoxazolidin-5-yl]acetyl]amino-N-n-butyloxycarbonyl-L-alanine methyl ester monotrifluoroacetic acid] |  | < 10 µM |
| COC(=O)[C@H](CNC(=O)CC1CC(c2ccc(C(=N)N)cc2)N(C)C(=O)O1)NS(=O)(=O)c1c(C)noc1C (stereo partly drawn) [Example 335, Cis-3-[[[4-[4-(aminoiminomethyl)phenyl]tetrahydro-3-methyl-2-oxo-2H-1,3-oxazin-6-yl]acetyl]amino]-N-[(3,5dimethylisoxazol-4-yl)sulfonyl]-L-alanine methyl ester monotrifluoroacetic acid] |  | < 10 µM |
| COC(=O)[C@H](CNC(=O)CC1CC(c2ccc(C(=N)N)cc2)N(C)C(=O)O1)NS(=O)(=O)c1ccccc1C (stereo partly drawn) [Example 327, Cis-3-[[[4-[4-(aminoiminomethyl)phenyl]tetrahydro-3-methyl-2-oxo-2H-1,3-oxazin-6-yl]acetyl]amino]-N-[(2-methylphenyl)sulfonyl]-L-alanine methyl ester monotrifluoroacetic acid] |  | < 10 µM |
| COC(=O)[C@H](CNC(=O)C[C@@H]1CC(c2ccc(C(=N)N)cc2)N(Cc2ccccc2)O1)NS(=O)(=O)c1cccc(C)c1 (relative stereo) [Example 16, Cis-3-[2-[2-benzyl-3-[4-(aminoiminomethyl)phenyl]-isoxazolidin-5-yl]acetyl]-N-(3-methylphenylsulfonyl)-L-alanine methyl ester monotrifluoroacetic acid] |  | < 10 µM |
| COC(=O)[C@H](CNC(=O)CC1CC(c2ccc(C(=N)N)cc2)N(Cc2ccccc2)C(=O)O1)NS(=O)(=O)c1cccc(C)c1 (stereo partly drawn) [Example 321, Cis-3-[[[4-[4-(aminoiminomethyl)phenyl]tetrahydro-3-benzyl-2-oxo-2H-1,3-oxazin-6-yl]acetyl]amino]-N-[(3-methylphenyl)sulfonyl]-L-alanine methyl ester monotrifluoroacetic acid] |  | < 10 µM |
| COC(=O)[C@H](CNC(=O)CC1CC(c2ccc(C(=N)N)cc2)N(C)O1)NS(=O)(=O)c1ccccc1C (stereo partly drawn) [Example 32, Cis-3-[2-[2-methyl-3-[4-(aminoiminomethyl)phenyl]-isoxazolidin-5-yl]acetyl]amino-N-(2-methylphenylsulfonyl)-L-alanine methyl ester monotrifluoroacetic acid] |  | < 10 µM |
| COC(=O)[C@H](CNC(=O)CC1CC(c2ccc(C(=N)N)cc2)N(C(C)C)O1)NS(=O)(=O)c1cccc(C)c1 (stereo partly drawn) [Example 28, Cis-3-[2-[2-isopropyl-3-[4-(aminoiminomethyl)phenyl]-isoxazolidin-5-yl]acetyl]amino-N-(3-methylphenylsulfonyl)-L-alanine methyl ester monotrifluoroacetic acid] |  | < 10 µM |
